Measured values taken from ChEMBL document CHEMBL6182937, “Design, Synthesis, and Anti-ischemic Stroke Activity Evaluation of Novel GSNOR Inhibitors” (J Med Chem, 2025).
The source made the active and inactive calls. No cut-off for these calls is given here.

Experiments:
[1] = Tmax in Sprague-Dawley rat at 10 mg/kg, iv by LC-MS/MS analysis; assay type: ADME, organism-based; settings: in vivo
CYP2C19 = CYP2C19 (Homo sapiens, UniProt P33261); experiment: Inhibition of human CYP2C19 in human liver microsome at 10 uM relative to control; assay type: ADME; settings: human liver microsomes
CYP2C19, sequence (P33261 whole entry): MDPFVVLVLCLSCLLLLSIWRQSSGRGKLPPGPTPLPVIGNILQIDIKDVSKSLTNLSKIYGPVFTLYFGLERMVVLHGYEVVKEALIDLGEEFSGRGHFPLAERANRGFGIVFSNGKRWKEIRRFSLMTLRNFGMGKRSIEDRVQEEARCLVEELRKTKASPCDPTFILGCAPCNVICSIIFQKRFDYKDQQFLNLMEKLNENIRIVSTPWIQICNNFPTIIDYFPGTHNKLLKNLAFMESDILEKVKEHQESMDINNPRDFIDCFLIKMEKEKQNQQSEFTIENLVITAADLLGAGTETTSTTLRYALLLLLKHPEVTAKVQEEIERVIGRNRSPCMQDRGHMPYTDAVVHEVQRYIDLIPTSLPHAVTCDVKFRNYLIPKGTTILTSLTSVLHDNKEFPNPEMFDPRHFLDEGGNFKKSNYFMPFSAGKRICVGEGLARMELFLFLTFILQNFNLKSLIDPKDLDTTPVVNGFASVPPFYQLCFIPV

CYP3A4 = CYP3A4 (Homo sapiens, UniProt P08684); experiment: Inhibition of human CYP3A4 in human liver microsome at 10 uM relative to control; assay type: ADME; settings: human liver microsomes
CYP3A4, sequence (P08684 whole entry): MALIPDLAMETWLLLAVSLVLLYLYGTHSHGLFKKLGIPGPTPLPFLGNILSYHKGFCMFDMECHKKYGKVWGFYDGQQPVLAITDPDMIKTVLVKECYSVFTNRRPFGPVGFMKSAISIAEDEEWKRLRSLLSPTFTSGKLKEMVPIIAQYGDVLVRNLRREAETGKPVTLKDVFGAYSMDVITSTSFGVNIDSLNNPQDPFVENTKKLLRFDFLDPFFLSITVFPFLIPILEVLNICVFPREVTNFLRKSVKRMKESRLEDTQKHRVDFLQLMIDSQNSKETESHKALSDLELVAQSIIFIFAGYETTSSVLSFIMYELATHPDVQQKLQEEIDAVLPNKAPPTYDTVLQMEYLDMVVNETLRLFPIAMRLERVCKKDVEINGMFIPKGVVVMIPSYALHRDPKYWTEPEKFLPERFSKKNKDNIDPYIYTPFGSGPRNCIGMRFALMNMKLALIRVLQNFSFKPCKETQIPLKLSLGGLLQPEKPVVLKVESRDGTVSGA

[2] = Inhibition of GSNOR (unknown origin) in presence of NADH incubated for 10 mins by microplate reader analysis; parameters: species or system Homo sapiens
[3] = Oral bioavailability in male C57BL/6 mouse at 10 mg/kg by LC-MS/MS analysis; assay type: ADME, organism-based; settings: in vivo
SH-SY5Y [4] = experiment: Cytotoxicity against human SH-SY5Y cells up to 40 uM incubated for 24 hrs by CCK-8 assay; assay type: functional, cell-based
CYP2D6 = CYP2D6 (Homo sapiens, UniProt P10635); experiment: Inhibition of human CYP2D6 in human liver microsome at 10 uM relative to control; assay type: ADME; settings: human liver microsomes
CYP2D6, sequence (P10635 whole entry): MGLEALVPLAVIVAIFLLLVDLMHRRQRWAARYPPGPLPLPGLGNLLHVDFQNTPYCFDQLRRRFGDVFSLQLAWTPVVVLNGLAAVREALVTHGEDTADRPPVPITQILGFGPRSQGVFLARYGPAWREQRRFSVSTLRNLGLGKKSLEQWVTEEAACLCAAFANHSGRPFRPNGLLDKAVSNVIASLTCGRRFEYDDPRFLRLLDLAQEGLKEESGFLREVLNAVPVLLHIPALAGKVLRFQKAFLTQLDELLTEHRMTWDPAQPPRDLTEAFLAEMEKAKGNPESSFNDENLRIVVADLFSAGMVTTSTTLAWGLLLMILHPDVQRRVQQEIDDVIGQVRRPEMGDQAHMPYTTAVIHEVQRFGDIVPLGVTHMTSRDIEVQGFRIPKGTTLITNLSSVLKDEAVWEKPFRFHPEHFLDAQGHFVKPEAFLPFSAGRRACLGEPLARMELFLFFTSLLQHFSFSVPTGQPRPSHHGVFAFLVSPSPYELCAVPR

[5] = Half life in Sprague-Dawley rat at 10 mg/kg, iv by LC-MS/MS analysis; assay type: ADME, organism-based; settings: in vivo
[6] = Cmax in Sprague-Dawley rat at 10 mg/kg, iv by LC-MS/MS analysis; assay type: ADME, organism-based; settings: in vivo
CYP1A2 = target: T1, CYP1A2 (Homo sapiens, UniProt P05177); experiment: Inhibition of human CYP1A2 in human liver microsome at 10 uM relative to control; assay type: ADME; settings: human liver microsomes
T1 sequence (P05177 whole entry): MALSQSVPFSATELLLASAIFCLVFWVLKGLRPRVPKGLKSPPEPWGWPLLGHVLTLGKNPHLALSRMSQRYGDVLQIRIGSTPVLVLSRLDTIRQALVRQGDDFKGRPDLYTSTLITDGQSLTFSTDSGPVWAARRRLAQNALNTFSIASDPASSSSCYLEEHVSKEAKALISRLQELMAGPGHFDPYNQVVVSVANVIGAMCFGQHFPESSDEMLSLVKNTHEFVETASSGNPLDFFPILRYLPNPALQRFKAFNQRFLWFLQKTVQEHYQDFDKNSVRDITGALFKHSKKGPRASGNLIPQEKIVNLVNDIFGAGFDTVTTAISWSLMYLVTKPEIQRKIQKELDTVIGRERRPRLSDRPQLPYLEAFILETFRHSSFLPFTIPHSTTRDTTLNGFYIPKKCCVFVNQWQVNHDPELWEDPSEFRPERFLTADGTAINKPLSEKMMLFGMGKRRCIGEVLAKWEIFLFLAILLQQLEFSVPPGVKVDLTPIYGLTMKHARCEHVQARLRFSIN

[7] = MRT (0 to t) in Sprague-Dawley rat at 10 mg/kg, iv by LC-MS/MS analysis; assay type: ADME, organism-based; settings: in vivo
SH-SY5Y [8] = experiment: Neuroprotective activity against OGD/R-induced human […] cell injury model assessed as increase in cell viability at 10 uM measured for 24 hrs by CCK-8 assay; assay type: functional, cell-based
[9] = Clearance in Sprague-Dawley rat at 10 mg/kg, iv by LC-MS/MS analysis; assay type: ADME, organism-based; settings: in vivo
CYP2C9 = CYP2C9 (Homo sapiens, UniProt P11712); experiment: Inhibition of human CYP2C9 in human liver microsome at 10 uM relative to control; assay type: ADME; settings: human liver microsomes
CYP2C9, sequence (P11712 whole entry): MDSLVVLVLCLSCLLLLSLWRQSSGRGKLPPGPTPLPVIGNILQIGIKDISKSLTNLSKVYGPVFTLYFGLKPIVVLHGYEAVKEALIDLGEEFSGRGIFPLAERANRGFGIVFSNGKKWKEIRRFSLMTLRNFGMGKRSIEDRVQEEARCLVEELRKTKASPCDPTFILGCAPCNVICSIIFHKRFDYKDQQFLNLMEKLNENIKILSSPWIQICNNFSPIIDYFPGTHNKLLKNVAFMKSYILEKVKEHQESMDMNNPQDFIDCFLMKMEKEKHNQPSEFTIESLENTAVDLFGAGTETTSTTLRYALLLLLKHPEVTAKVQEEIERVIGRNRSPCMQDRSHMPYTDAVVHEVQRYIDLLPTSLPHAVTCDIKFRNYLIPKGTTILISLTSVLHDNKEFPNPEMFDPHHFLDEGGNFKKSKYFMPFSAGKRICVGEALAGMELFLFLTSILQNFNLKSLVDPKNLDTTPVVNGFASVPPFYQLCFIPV

[10] = AUC (0 to t) in Sprague-Dawley rat at 10 mg/kg, iv by LC-MS/MS analysis; assay type: ADME, organism-based; settings: in vivo
Homo sapiens = species on record: Homo sapiens; experiment: Inhibition of GSNOR (unknown origin) at 1 uM in presence of NADH incubated for 10 mins by microplate reader analysis relative to control
[11] = Inhibition of GSNOR (unknown origin); parameters: species or system Homo sapiens
Rattus norvegicus = experiment: Neuroprotective activity against tMCAO- induced brain injury in Sprague-Dawley rat model assessed as reduction in infarct volume at 5 mg/kg, iv measured up to 24 hrs by TTC staining based analysis (reference value: 36.35 +/- 4.05%); assay type: functional; parameters: scale not given: the % may be the effect or the level left

Row | SMILES | IC50 [2] [nM] | inhibition (Homo sapiens) [%] | other results
1 | CCOc1cc(-n2c(-c3ccc(-n4ccnc4)cc3)cc3ccc(C(=O)O)cc32)ccc1C(N)=O | 44.1 | 95.1 | Tmax [1]: 19.8 min; inhibition at 10 µM (CYP2C19): 70.1%; inhibition at 10 µM (CYP3A4): 81.5%; bioavailability [3]: 6.64%; Activity (SH-SY5Y [4]): Active; inhibition at 10 µM (CYP2D6): 59.2%; half-life [5]: 51 min; Cmax [6]: 2930 ng/mL; inhibition at 10 µM (CYP1A2): 16.6%; MRT last [7]: 63 min; Activity (SH-SY5Y [8]): Active; clearance [9]: 48.5 mL/min/kg; inhibition at 10 µM (CYP2C9): 75%; AUC(0-t) [10]: 3510 ng·h/mL
2 | NC(=O)c1ccc(-n2c(-c3ccc(-n4ccnc4)cc3)cc3ccc(C(=O)O)cc32)cc1 | 312 | 81.7 | 
3 | O=C(O)c1ccc2cc(-c3ccc(-n4ccnc4)cc3)n(Cc3ccc(Br)cc3)c2c1 | 84.4 | 81.6 | 
4 | NC(=O)c1ccc(Cn2c(-c3ccc(-n4ccnc4)cc3)cc3ccc(C(=O)O)cc32)cc1 | 42.2 | 22.4 | 
5 | O=C(O)c1ccc2cc(-c3ccc(-n4ccnc4)cc3)n(Cc3ccc(SC(F)(F)F)cc3)c2c1 | 71.1 | 89.7 | 
6 | NC(=O)c1ccc(-n2c(-c3ccc(-n4ccnc4)cc3)cc3ccc(C(=O)O)cc32)cc1C(F)(F)F |  | 50.9 | 
7 | O=C(O)c1ccc2cc(-c3ccc(-n4ccnc4)cc3)n(Cc3ccc(Cl)cc3)c2c1 | 171 | 28.1 | 
8 | Cc1cc(C(N)=O)ccc1-n1c(-c2ccc(NS(N)(=O)=O)cc2)cc2ccc(C(=O)O)cc21 |  | 14.8 | 
9 | O=C(O)c1ccc2cc(-c3ccc(-n4ccnc4)cc3)n(Cc3ccc(N4CCCC4=O)cc3)c2c1 |  | 85.5 | 
10 | Cc1cc(C(N)=O)ccc1-n1c(-c2ccc(-c3ccncc3)cc2)cc2ccc(C(=O)O)cc21 |  | 12.5 | 
11 | NC(=O)c1ccc(-n2c(-c3ccc(-n4ccnc4)cc3)cc3ccc(C(=O)O)cc32)cn1 |  | 60.7 | 
12 | Cc1cc(-n2c(-c3ccc(-n4ccnc4)cc3)cc3ccc(C(=O)O)cc32)ccc1C(N)=O |  | 72.2 | 
13 | Cc1cc(C(N)=O)ccc1-n1c(-c2ccc(N3CCN(C)CC3)cc2)cc2ccc(C(=O)O)cc21 |  | -0.36 | 
14 | O=C(O)c1ccc2cc(-c3ccc(-n4ccnc4)cc3)n(Cc3ccc(F)cc3)c2c1 |  |  | IC50 [11]: 649 nM
15 | Cc1cc(C(N)=O)ccc1-n1c(-c2ccc(O)cc2)cc2ccc(C(=O)O)cc21 |  | 33.7 | 
16 | CC(C)Oc1cc(-n2c(-c3ccc(-n4ccnc4)cc3)cc3ccc(C(=O)O)cc32)ccc1C(N)=O | 58.3 | 92.3 | 
17 | N#Cc1ccc(Cn2c(-c3ccc(-n4ccnc4)cc3)cc3ccc(C(=O)O)cc32)cc1 | 54.6 | 35.1 | 
18 | N[C@@H](CCC(=O)N[C@@H](CSN=O)C(=O)NCC(=O)O)C(=O)O [S-NITROSOGLUTATHIONE] |  |  | Activity (Rattus norvegicus): 25.26%; Activity (SH-SY5Y [8]): Active
